The record followed here is ChEMBL document CHEMBL4765362, “Thirty Years of HDAC Inhibitors: 2020 Insight and Hindsight” (J Med Chem, 2020).

Each structure is given as a SMILES string.

The target of test [1] is T1, Histone deacetylase 8 (Homo sapiens, UniProt Q9BY41).
T1 sequence (Q9BY41 whole entry): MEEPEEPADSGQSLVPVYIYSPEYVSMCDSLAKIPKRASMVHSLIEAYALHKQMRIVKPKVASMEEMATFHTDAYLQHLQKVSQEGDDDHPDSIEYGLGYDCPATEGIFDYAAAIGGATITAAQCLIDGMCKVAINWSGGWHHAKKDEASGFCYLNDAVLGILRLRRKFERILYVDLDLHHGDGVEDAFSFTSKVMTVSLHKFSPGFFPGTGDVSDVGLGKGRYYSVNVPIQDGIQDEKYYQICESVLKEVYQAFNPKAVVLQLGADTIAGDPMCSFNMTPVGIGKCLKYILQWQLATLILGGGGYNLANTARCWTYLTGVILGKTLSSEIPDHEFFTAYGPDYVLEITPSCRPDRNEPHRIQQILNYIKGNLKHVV
Nature of the test: Inhibition of HDAC8 (unknown origin) using p53 (379 to 382 residues)(RHK(Ac)K(ac)AMC) as substrate by fluorescent method.

Test [2] addresses T2, Histone deacetylase 4 (Homo sapiens, UniProt P56524). The experiment in a line: Inhibition of HDAC4 (unknown origin) using HDAC class IIa substrate (trifluoroacetyl-lysine-AMC) as substrate by fluorescent method.
Test [3] concerns the target T3, Histone deacetylase 5 (Homo sapiens, UniProt Q9UQL6). The experiment in a line: Inhibition of HDAC5 (unknown origin) using HDAC class IIa substrate (trifluoroacetyl-lysine-AMC) as substrate by fluorescent method.
Test [4] concerns the target T4, Histone deacetylase 9 (Homo sapiens, UniProt Q9UKV0). The experiment in a line: Inhibition of HDAC9 (unknown origin) using HDAC class IIa substrate (trifluoroacetyl-lysine-AMC) as substrate by fluorescent method.
Test [5] deals with T5, Protein deacetylase HDAC6 (Homo sapiens, UniProt Q9UBN7).
T5 sequence (Q9UBN7 whole entry): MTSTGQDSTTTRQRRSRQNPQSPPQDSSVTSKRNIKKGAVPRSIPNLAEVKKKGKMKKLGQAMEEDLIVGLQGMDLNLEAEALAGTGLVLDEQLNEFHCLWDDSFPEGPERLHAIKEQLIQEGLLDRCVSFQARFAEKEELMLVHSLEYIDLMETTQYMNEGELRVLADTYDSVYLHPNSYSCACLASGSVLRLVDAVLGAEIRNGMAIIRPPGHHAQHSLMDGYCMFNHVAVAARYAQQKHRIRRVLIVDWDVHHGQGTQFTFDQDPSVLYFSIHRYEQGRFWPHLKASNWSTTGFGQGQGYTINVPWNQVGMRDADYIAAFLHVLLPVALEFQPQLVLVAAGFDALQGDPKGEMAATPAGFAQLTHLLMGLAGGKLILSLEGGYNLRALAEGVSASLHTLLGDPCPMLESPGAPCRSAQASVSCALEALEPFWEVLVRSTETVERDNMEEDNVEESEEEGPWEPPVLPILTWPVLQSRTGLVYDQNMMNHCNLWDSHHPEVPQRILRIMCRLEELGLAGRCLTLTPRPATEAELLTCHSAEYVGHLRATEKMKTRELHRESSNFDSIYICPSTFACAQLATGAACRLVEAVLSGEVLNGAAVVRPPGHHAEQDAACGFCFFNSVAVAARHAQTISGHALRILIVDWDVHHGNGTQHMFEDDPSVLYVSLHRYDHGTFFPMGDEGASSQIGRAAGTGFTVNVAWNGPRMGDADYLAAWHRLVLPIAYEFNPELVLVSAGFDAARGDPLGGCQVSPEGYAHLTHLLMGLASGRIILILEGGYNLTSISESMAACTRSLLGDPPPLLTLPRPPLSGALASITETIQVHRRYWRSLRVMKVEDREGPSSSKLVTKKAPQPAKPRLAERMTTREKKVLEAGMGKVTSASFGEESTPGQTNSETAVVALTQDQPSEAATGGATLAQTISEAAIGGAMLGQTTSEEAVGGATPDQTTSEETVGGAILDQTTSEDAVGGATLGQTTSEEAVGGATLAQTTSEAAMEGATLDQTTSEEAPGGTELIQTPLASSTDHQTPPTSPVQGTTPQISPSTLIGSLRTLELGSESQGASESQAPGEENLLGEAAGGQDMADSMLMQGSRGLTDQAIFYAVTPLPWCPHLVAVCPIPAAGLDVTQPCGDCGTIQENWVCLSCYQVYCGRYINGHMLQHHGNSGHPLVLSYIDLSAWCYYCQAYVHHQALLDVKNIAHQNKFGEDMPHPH
Nature of the test: Inhibition of HDAC6 (unknown origin) using p53 residues (379 to 382)(RHKK(Ac)-AMC) as substrate by fluorescent method.

For test [6], the target named is T6, Polyamine deacetylase HDAC10 (Homo sapiens, UniProt Q969S8).
T6 sequence (Q969S8 whole entry): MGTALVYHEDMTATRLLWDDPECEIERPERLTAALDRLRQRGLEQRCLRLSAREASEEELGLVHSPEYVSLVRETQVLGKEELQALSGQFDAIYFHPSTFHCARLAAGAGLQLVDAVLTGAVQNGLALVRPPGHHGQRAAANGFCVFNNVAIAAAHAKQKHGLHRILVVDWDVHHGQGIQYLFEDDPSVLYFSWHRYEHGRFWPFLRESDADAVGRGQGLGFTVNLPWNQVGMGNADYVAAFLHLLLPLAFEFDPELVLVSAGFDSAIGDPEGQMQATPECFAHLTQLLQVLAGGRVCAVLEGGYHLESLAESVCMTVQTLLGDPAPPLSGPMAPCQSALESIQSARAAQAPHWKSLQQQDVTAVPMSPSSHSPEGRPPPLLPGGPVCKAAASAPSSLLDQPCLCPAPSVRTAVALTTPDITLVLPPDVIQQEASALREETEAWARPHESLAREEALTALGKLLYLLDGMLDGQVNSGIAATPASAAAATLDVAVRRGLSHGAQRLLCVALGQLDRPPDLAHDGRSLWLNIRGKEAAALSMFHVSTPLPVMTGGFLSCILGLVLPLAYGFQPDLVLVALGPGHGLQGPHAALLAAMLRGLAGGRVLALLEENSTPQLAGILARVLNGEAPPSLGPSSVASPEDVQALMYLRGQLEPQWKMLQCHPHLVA
The experiment in a line: Inhibition of HDAC10 (unknown origin) using p53 residues (379 to 382)(RHKK(Ac)-AMC) as substrate by fluorescent method.

The target in another test is Histone deacetylase 3 (Homo sapiens, UniProt O15379). The experiment in a line: Inhibition of HDAC3 (unknown origin).
Sequence of Histone deacetylase 3 (O15379 whole entry): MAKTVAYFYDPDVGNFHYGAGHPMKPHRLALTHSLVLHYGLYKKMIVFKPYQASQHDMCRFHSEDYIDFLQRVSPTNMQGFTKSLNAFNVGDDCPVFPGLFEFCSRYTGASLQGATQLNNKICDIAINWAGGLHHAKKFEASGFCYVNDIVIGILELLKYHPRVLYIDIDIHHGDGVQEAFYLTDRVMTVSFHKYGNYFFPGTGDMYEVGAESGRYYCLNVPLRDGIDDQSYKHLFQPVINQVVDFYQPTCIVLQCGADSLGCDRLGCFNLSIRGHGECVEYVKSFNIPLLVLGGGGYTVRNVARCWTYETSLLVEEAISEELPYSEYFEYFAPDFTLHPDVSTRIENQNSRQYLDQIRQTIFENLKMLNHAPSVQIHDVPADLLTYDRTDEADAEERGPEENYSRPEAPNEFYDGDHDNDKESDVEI
Another test concerns the target Histone deacetylase 1 (Homo sapiens, UniProt Q13547). Nature of the test: Inhibition of human full length C-terminal Flag tagged HDAC1 expressed in HEK293T cells using H3K9-myristoyl peptide as substrate by HPLC method.
Test [7] concerns the target T2, Histone deacetylase 4. Nature of the test: Inhibition of human full length C-terminal Flag tagged HDAC4 expressed in HEK293T cells using H3K9-myristoyl peptide as substrate by HPLC method.
The target in test [8] is T3, Histone deacetylase 5. The experiment in a line: Inhibition of HDAC5 (unknown origin).
Test [9] addresses T5, Protein deacetylase HDAC6. The experiment in a line: Inhibition of HDAC6 (unknown origin).
In test [10] the target is T1, Histone deacetylase 8. The experiment in a line: Inhibition of HDAC8 (unknown origin).
Test [11] has as its target T4, Histone deacetylase 9. Nature of the test: Inhibition of HDAC9 (unknown origin).

T3 sequence (Q9UQL6 whole entry): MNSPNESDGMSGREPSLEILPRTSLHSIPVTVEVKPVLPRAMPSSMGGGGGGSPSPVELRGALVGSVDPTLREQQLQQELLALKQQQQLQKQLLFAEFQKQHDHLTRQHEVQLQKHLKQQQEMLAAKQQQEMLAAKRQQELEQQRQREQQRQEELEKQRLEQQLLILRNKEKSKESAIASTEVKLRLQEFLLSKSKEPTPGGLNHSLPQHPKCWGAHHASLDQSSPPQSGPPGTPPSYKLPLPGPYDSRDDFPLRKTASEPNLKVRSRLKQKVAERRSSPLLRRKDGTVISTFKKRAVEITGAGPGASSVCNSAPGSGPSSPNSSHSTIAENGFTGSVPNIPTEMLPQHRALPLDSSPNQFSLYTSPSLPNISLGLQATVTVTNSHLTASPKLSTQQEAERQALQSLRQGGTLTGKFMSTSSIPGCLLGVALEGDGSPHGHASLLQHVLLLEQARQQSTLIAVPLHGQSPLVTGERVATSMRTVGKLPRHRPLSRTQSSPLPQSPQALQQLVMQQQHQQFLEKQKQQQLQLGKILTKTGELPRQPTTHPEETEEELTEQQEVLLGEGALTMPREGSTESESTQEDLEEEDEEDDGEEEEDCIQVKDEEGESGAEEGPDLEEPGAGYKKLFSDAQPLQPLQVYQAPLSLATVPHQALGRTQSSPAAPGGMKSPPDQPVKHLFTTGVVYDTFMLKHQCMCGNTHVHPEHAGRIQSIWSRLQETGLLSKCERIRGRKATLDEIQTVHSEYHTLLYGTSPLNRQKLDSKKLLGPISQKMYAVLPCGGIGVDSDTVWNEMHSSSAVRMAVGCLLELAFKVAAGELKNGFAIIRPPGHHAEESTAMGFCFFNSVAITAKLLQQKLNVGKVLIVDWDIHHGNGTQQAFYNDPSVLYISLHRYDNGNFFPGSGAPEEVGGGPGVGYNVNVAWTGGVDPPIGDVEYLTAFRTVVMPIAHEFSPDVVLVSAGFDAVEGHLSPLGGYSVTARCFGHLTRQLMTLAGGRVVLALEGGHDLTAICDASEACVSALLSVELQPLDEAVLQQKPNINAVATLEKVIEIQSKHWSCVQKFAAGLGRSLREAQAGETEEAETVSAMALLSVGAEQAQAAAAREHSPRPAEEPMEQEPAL
T4 sequence (Q9UKV0 whole entry): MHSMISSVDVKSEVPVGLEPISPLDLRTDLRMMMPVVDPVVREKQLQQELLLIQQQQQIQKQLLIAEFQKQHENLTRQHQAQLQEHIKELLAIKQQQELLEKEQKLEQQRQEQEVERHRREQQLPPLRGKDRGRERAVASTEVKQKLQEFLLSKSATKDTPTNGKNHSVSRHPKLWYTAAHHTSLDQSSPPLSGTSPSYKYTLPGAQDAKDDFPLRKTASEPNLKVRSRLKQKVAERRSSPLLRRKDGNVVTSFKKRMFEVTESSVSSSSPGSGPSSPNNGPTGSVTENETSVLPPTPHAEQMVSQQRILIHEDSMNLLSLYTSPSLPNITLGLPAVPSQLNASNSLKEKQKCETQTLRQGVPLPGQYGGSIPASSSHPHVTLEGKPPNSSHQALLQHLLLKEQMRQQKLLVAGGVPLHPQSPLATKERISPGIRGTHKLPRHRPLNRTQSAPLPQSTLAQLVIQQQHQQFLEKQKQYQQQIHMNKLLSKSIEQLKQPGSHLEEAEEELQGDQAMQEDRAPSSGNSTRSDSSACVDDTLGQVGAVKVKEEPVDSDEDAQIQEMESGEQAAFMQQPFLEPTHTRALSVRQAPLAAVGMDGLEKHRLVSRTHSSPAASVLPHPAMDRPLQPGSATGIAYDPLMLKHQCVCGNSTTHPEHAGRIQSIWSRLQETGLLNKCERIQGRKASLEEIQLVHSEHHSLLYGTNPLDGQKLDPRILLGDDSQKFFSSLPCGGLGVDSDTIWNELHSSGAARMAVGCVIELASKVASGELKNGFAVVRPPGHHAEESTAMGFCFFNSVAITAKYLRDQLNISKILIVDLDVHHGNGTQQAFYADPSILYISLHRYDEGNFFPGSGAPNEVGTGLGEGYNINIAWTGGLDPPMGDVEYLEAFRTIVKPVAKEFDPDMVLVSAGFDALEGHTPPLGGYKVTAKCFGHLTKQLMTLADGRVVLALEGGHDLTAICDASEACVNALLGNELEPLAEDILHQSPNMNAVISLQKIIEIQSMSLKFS
T2 sequence (P56524 whole entry): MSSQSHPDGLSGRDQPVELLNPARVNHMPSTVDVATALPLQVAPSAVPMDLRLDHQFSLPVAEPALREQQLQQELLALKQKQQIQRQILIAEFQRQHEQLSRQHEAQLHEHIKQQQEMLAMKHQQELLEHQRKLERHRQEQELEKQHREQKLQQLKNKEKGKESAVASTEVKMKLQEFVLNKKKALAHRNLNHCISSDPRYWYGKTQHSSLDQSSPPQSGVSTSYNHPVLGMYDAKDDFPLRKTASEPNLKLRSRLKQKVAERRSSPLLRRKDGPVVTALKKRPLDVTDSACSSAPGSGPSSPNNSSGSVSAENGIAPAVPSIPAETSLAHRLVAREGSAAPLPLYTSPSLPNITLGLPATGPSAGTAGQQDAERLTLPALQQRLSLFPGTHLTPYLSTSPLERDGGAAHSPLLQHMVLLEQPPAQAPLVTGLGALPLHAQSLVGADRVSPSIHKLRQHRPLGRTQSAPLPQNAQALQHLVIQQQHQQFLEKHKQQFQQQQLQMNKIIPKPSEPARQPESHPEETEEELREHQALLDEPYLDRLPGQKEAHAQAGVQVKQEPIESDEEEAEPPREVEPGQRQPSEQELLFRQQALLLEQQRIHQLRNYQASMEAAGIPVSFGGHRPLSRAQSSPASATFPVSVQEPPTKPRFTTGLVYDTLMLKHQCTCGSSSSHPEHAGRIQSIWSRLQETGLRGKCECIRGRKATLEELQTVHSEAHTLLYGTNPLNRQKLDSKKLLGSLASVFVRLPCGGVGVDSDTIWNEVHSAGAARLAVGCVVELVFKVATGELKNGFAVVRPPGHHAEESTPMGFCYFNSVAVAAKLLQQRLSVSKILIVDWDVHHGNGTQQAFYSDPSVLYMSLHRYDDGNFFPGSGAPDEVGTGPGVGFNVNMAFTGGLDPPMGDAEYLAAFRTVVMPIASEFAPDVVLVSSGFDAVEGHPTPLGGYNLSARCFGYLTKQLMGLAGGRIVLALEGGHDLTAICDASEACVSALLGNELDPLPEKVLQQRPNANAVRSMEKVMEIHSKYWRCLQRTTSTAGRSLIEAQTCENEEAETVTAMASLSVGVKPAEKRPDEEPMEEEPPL
Sequence of Histone deacetylase 1 (Q13547 whole entry): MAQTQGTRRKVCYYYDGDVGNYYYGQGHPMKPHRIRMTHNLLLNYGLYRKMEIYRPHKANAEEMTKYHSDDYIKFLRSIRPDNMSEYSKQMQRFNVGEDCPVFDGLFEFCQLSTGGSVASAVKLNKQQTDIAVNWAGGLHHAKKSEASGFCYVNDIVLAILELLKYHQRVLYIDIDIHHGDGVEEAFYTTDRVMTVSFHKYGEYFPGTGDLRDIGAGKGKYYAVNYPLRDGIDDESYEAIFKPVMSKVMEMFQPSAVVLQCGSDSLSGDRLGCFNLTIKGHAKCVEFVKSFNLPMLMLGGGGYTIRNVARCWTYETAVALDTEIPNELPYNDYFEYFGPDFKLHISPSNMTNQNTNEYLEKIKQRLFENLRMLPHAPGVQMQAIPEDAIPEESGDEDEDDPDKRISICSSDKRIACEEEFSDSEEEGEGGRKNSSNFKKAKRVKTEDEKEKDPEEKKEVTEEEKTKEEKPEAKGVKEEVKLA

Usually IC50 stands for the concentration needed to halve the response being measured. A higher IC50 goes with lower potency. As to `Cn1cc(-c2ccc(S(=O)(=O)n3ccc(/C=C/C(=O)Nc4ccccc4N)c3)cc2)cn1` [DOMATINOSTAT], the IC50 (at Histone deacetylase 8 [1]; at Histone deacetylase 4 [2]; against Histone deacetylase 5 [3]; against Histone deacetylase 9 [4]; in test [5]; in test [6]) was greater than 10 µM in each case.
Regarding `CCCCCCCCCCCCCCCCNNC(=O)c1cccs1`, the IC50 on Histone deacetylase 3 was greater than 10 µM; at Histone deacetylase 1 it was greater than 10 µM; against Histone deacetylase 4 [7], greater than 10 µM; on Histone deacetylase 5 [8] it was greater than 10 µM; in [9] it was greater than 10 µM; at Histone deacetylase 8 [10], 6 µM. The IC50 against Histone deacetylase 9 [11] was greater than 10 µM.
